Source: patent US20140303105A1, “Primycin and components thereof for use in the treatment or prevention of infections caused by specific pathogens” (PANNONPHARMA GYÓGYSZERGYÁRTÓ ZRT., priority 2011, published 2014)
Where two headings read alike, the source gives them in different places.

Legend:
[1] = test system: Staphylococcus aureus, methicillin susceptible; assay: Standard microdilution susceptibility test, clinical isolates; format: cell-based; conditions: 10 clinical isolates
[2] = test system: Staphylococcus aureus, methicillin resistant; assay: as above; format: cell-based; conditions: 10 clinical isolates
[3] = test system: Coagulase-negative Staphylococus sp., methicillin susceptible; assay: as above; format: cell-based; conditions: 10 clinical isolates
[4] = test system: Enterococcus sp., decreased vancomycin susceptibility; assay: as above; format: cell-based; conditions: 5 clinical isolates
E. casseliflavus = assay: Microdilution MIC, Enterococcus isolates with van resistance genes; format: cell-based
Description: (§1) Identification and characterization of resistance patterns of these bacteria were performed by standard methods.
(§2) When forming the test groups we attached great importance to the increasing incidence of drug-resistant microbes causing therapeutic problems. Most important of them are methicillin-resistant Staphylococcus aureus (MRSA), methicillin-resistant coagulase-negative Staphylococcus spp. (MRCoNS), penicillin-resistant Streptococcus pneumoniae (pneumococcus), vancomycin-resistant Enterococcus spp. (VRE). Pneumococcus isolates represented various serotypes, VRE isolates belonged to various species. Moreover, vancomycin-resistance of VRE isolates was based on different genetic backgrounds. Antibiotic-resistant strains were also represented among international reference strains, for example methicillin-resistant Staphylococcus aureus ATCC 43300 (MRSA), Staphylococcus aureus with decreased vancomycin susceptibility ATCC 700698 and 700699 (vancomycin intermediate Staphylococcus aureus—VISA), mupirocin-resistant Staphylococcus aureus ATCC BAA1708 and vancomycin-resistant Enterococcus faecalis ATCC 51299 (VRE).
(§3) Susceptibility tests were performed according to the standard microdilution method (NCCLS (CLSI) M7-A7).
(§4) The lowest concentration at which no bacterial growth was observed after the incubation period is the Minimal Inhibitory Concentration (MIC). The MIC value is inversely proportional to the antimicrobial efficacy. MIC values of antimicrobial agents can differ by species or even by bacterial strains within species.

E. faecalis = assay: as above; format: cell-based
Description: as §1, §2, §3, §4

E. faecium = assay: as above; format: cell-based; conditions: resistance gene van B
Description: as §1, §2, §3, §4

[5] = test system: Staphylococcus aureus 7503; conditions: cited from earlier work
[6] = test system: Staphylococcus saprophyticus 8454; conditions: cited from earlier work
[7] = test system: Staphylococcus hominis 7835; conditions: cited from earlier work
[8] = test system: Streptococcus simulans 7866; conditions: cited from earlier work
Micrococcus spp. = conditions: cited from earlier work
Escherichia coli B 1218 = conditions: cited from earlier work
Propionibacterium acnes [9] = conditions: cited from earlier work
S. aureus = conditions: by Bryskier; cited from earlier work
Streptococcus mitis = conditions: by Bryskier; cited from earlier work
Micrococcus = conditions: by Bryskier; cited from earlier work
Coryneform(s) = conditions: by Bryskier; cited from earlier work
Escherichia coli = conditions: by Bryskier; cited from earlier work
Enterobacter cloacae = conditions: by Bryskier; cited from earlier work
Propionibacterium acnes [10] = conditions: by Bryskier; cited from earlier work
S. aureus ATCC 25923 = conditions: Uri and Actor 1979; cited from earlier work
[11] = test system: laboratory strain Listeria monocytogenes; conditions: Uri 1986; cited from earlier work
[12] = test system: erythromycin-resistant staphylococci; conditions: 71 strains; cited from earlier work
[13] = test system: S. aureus and coagulase-negative staphylococci; conditions: Bryskier 2005; cited from earlier work
[14] = test system: enterococci and S. pyogenes; conditions: Bryskier 2005; cited from earlier work
[15] = test system: Bacillus spp. and Micrococcus spp.; conditions: Bryskier 2005; cited from earlier work
[16] = test system: Corynebacterium spp., Enterobacteriaceae species, Pseudomonas aeruginosa, yeasts and dermatophytes; conditions: Bryskier 2005; cited from earlier work

In the case of Primycin, the “MIC 50%” value [1] is reported as 0.06 µg/mL, the “MIC 90%” value [1] is reported as 0.06 µg/mL and the “MIC Range” value [1] is reported as 0.06-0.06 mg/L. The “Ratio of Sensitive/Total” value [1] was 10/10, the “MIC 50%” value [2] was 0.06 µg/mL and the “MIC 90%” value [2] was 0.06 µg/mL. The “MIC Range” value [2] was 0.06-0.06 mg/L, the “Ratio of Sensitive/Total” value [2] was 10/10 and the “MIC 50%” value [3] was 0.03 µg/mL. The “MIC 90%” value [3] was 0.06 µg/mL, the “MIC Range” value [3] was 0.03 to 0.06 µg/mL and the “Ratio of Sensitive/Total” value [3] was 10/10. For the same substance, the “MIC Range” value [4] was 0.25 to 0.5 µg/mL, the “Ratio of Sensitive/Total” value [4] was 5/5 and the MIC (E. casseliflavus; resistance gene van C1) was 0.5 µg/mL. The MIC (E. casseliflavus; resistance gene van C2) was 0.5 µg/mL, the MIC (E. faecalis; resistance gene van A) was 0.5 µg/mL and the MIC (E. faecalis; resistance gene van C1) was 0.5 µg/mL. The MIC (E. faecium) was 0.25 µg/mL, the MIC [5] was 0.39 µg/mL and the MIC [6] was 0.39 µg/mL. The MIC [7] was 0.39 µg/mL, the MIC [8] was 0.39 µg/mL and the MIC (Micrococcus spp.) was 0.78 µg/mL. The MIC (Escherichia coli B 1218) was 50.0 µg/mL, the MIC (Propionibacterium acnes [9]) was less than 0.1 µg/mL and the MIC (S. aureus) was 0.39 µg/mL. For the same substance, the MIC (Streptococcus mitis) was 50 µg/mL, the MIC (Micrococcus) was 0.78 µg/mL and the MIC (Coryneform(s)) was 50 µg/mL. For the same substance, the MIC (Escherichia coli) was 50 µg/mL, the MIC (Enterobacter cloacae) was 50 µg/mL and the MIC (Propionibacterium acnes [10]) was less than 0.1 µg/mL. For the same substance, the “MIC (not inhibited at the highest concentration tested)” value (S. aureus ATCC 25923) was greater than 2 µg/mL, the MIC [11] was 0.25 µg/mL and the “share of strains presenting primycin resistance” value [12] was 13%. For the same substance, the efficacy [13] was “effective”, the efficacy [14] was “moderate efficacy” and the efficacy [15] was “effective”. The efficacy [16] was “ineffective”.
